These results are taken from paper PMC11279778 (2024).

This assay relates to Bcl-2 G-quadruplex (2F8U, 23-mer with 15,16-G-to-T mutations) (DNA, G4) GGGCGCGGGAGGAATTGGGCGGG
The experiment in a line: CD melting at 265 nm. The note with it: 100 mM KCl; 10 mM Tris-HCl pH 7.2; 3 eq ligand, 2 µM DNA.
Regarding `CCn1c2ccccc2c2cc(/C=C/c3sc4ccccc4[n+]3CC)ccc21`, the ΔTm (as a rule, the shift of the melting midpoint relative to a reference) was 3.1 °C.
Regarding `CC[n+]1c(/C=C/c2ccc3c(c2)c2ccccc2n3CCCCn2ccnc2)sc2ccccc21`, the thermal shift (ΔTm) was determined as 6.3 °C.
Consider `CC[n+]1c(/C=C/c2ccc3c(c2)c2ccccc2n3CCCCn2cncn2)sc2ccccc21`, for which the ΔTm was 3.0 °C.
